Data taken from US9428503B2, “Imidazo[4,5-c]quinolin-2-one compounds and their use in treating Cancer” (AstraZeneca AB, priority 2014, dated 2016).
Where a name gives a salt, the structure may show the parent alone.

What was measured:
Type in all cases: cell-based
ATR kinase = ATR kinase (Homo sapiens (Human), UniProt Q13535); test: Assay b) ATR cellular potency assay (pChk1 Ser345 in HT29 cells treated with 4NQO); conditions: HT29 cells, pChk1 Ser345 after 4NQO; geometric mean where repeated; read-out: Assay b) ATR Cell IC50
ATR kinase, sequence (Q13535 whole entry): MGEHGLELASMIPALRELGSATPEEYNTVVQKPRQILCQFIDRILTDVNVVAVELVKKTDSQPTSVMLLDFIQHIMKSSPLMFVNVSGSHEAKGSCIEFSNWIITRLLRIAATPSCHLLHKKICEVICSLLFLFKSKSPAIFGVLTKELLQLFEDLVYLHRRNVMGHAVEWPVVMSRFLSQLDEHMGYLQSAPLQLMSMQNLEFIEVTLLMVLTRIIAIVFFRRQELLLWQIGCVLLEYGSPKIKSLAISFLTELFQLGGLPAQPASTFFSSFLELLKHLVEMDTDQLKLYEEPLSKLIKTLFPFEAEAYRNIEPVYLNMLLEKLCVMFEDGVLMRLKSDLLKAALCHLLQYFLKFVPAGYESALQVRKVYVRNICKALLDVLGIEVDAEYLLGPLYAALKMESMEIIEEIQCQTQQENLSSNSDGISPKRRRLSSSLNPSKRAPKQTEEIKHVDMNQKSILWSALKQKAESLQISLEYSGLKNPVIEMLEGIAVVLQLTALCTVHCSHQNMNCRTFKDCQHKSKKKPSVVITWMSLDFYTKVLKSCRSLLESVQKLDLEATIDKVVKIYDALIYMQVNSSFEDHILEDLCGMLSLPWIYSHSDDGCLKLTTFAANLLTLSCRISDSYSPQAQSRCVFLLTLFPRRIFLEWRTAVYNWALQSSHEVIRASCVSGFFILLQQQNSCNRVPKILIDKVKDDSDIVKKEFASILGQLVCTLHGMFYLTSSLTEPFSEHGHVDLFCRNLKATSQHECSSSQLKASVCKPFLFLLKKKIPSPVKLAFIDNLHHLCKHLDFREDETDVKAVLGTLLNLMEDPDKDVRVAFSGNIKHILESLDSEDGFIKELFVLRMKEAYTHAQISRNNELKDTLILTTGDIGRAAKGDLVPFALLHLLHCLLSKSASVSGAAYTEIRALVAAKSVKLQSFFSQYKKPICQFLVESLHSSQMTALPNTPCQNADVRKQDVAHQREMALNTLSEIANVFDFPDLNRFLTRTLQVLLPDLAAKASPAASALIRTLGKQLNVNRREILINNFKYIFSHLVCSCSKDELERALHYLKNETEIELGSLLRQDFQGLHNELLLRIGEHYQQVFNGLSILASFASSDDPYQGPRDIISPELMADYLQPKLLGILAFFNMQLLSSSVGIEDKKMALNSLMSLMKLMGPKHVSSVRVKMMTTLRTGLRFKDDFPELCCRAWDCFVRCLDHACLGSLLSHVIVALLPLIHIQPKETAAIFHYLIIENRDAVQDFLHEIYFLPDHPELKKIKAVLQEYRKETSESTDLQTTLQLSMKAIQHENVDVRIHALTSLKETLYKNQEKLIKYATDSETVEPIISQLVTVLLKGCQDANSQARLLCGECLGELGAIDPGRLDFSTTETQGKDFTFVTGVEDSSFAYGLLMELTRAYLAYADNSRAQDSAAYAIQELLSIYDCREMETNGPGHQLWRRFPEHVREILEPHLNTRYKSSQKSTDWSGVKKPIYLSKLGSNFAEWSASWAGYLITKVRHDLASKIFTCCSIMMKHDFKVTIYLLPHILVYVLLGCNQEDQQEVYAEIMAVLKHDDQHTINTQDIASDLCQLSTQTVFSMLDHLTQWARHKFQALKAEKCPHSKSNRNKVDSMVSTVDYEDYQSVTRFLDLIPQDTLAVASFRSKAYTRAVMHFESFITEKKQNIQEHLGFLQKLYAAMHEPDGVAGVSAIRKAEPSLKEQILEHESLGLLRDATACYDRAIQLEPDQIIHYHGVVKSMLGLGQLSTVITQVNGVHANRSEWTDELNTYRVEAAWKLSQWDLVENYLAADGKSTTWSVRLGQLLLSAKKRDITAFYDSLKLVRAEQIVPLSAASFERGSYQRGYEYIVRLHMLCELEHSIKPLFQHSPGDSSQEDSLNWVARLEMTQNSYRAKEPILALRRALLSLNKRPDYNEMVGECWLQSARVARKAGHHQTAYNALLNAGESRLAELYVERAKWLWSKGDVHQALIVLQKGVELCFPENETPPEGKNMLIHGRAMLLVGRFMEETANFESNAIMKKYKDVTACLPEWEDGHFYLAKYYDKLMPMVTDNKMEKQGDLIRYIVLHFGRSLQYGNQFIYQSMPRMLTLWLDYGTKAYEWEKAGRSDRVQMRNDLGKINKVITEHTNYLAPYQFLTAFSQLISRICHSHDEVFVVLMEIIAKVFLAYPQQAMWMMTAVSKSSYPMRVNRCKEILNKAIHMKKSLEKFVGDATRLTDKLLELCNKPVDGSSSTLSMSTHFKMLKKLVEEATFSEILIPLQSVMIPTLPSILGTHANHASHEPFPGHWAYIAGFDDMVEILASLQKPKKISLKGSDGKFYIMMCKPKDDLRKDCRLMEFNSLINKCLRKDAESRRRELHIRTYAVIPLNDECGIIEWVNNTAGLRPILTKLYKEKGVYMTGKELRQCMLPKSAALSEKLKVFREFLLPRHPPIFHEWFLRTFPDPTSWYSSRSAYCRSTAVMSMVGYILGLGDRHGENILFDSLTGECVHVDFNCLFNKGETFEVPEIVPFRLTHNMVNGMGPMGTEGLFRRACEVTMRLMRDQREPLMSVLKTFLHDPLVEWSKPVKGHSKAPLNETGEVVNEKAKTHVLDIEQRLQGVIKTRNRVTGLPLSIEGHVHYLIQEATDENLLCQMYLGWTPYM
ATR kinase, sequence (Q8WXE1 whole entry partner): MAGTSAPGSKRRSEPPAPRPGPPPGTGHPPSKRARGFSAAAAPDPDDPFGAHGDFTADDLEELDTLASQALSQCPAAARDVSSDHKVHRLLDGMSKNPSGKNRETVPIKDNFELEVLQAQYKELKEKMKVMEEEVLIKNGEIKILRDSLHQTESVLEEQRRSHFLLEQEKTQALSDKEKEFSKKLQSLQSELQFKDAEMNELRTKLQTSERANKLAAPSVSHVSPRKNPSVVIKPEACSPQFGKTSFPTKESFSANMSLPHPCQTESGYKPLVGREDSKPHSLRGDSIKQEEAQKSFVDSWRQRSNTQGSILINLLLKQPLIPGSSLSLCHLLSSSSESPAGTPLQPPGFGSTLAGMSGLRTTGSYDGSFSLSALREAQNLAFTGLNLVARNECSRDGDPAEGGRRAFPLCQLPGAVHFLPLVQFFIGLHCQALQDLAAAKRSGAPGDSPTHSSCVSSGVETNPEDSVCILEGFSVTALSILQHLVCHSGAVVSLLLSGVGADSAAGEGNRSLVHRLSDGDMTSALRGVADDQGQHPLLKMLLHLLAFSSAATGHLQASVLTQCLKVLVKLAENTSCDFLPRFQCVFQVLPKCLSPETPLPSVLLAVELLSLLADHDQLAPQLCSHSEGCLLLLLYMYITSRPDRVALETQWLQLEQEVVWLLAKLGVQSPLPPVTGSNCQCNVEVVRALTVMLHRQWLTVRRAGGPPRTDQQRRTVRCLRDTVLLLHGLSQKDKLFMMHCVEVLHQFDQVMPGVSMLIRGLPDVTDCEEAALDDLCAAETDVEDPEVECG

mTOR = mTOR (Homo sapiens (Human), UniProt P42345); test: Assay d) mTOR cellular potency assay (phospho-AKT Ser473 in MDA-MB-468 cells); conditions: MDA-MB-468 cells, phospho-AKT Ser473, 2 h; geometric mean where repeated; read-out: Assay d) mTOR Cell IC50
PI3K-α = PI3K-α (Homo sapiens, UniProt P42336); test: Assay c) PI3K cellular potency assay (phospho-Akt T308 ELISA in BT474 cells); conditions: BT474 cells, phospho-Akt T308, 2 h; geometric mean where repeated; read-out: Assay c) PI3Kα Cell IC50
PI3K-α, sequence (P42336 whole entry, looked up): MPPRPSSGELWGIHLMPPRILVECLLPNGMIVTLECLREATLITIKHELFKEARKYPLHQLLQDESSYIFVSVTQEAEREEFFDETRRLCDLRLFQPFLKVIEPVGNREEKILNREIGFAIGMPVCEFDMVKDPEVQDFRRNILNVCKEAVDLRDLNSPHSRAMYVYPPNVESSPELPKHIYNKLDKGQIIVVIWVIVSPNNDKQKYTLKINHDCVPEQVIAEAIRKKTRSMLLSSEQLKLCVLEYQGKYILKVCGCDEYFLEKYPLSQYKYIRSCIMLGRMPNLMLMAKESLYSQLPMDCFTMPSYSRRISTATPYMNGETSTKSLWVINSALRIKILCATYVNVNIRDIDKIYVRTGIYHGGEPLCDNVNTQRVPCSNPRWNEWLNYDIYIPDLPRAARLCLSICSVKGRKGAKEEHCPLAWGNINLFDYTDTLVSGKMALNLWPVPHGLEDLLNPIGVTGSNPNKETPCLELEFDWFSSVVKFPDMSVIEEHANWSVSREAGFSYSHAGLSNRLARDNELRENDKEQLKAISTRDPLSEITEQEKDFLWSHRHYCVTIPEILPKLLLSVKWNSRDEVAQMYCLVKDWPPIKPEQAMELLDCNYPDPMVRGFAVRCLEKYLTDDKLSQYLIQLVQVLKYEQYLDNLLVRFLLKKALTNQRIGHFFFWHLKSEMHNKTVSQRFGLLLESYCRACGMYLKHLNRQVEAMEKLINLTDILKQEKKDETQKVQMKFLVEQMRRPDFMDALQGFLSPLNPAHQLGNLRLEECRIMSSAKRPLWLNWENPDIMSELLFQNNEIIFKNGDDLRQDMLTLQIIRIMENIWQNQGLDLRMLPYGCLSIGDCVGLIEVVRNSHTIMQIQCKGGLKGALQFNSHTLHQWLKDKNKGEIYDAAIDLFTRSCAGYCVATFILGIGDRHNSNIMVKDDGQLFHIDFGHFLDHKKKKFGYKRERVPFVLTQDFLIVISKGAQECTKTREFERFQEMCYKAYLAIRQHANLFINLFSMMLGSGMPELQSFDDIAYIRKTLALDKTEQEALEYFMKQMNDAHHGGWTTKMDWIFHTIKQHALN

ATM kinase = ATM kinase (Homo sapiens (Human), UniProt Q13315); test: Assay a) ATM cellular potency assay (pATM Ser1981 in X-ray irradiated HT29 cells); conditions: HT29 cells, pATM Ser1981 after X-ray irradiation; geometric mean where repeated; read-out: Assay a) ATM Cell IC50

SMILES	IC50 (ATR kinase) [nM]	IC50 (mTOR) [nM]	IC50 (PI3K-α) [nM]	IC50 (ATM kinase) [nM]
CNCCCOc1ccc(-c2ccc3ncc4c(c3c2)n([C@H]2CCCOC2)c(=O)n4C)cn1 [Example 41, 3-methyl-8-[6-(3-methylaminopropoxy)pyridin-3-yl]-1-[(3S)-oxan-3-yl]imidazo[5,4-c]quinolin-2-one]	3940	395	267	0.555
CO[C@H]1C[C@@H](n2c(=O)[nH]c3cnc4ccc(-c5ccc(OCCCN6CCCC6)nc5)cc4c32)C1 [Example 35, 1-(cis-3-methoxycyclobutyl)-8-[6-(3-pyrrolidin-1-ylpropoxy)pyridin-3-yl]-3H-imidazo[4,5-c]quinolin-2-one]	17800	579	3000	0.589
CO[C@H]1CC[C@@H](n2c(=O)n(C)c3cnc4cc(F)c(-c5ccc(OCCCN(C)C)nc5)cc4c32)C1 [Example 70, 8-[6-[3-(dimethylamino)propoxy]-3-pyridyl]-7-fluoro-1-[(1R,3S)-3-methoxycyclopentyl]-3-methyl-imidazo[4,5-c]quinolin-2-one]	> 24900	> 30000	> 30000	2.43
CN(C)CCCOc1ccc(-c2ccc3ncc4c(c3c2)n([C@H]2CCCOC2)c(=O)n4C)c(F)n1 [Example 20, 8-[6-(3-dimethylaminopropoxy)-2-fluoropyridin-3-yl]-3-methyl-1-[(3S)-oxan-3-yl]imidazo[5,4-c]quinolin-2-one]	> 30000	529	1030	0.365
Cn1c(=O)n([C@@H]2CCCOC2)c2c3cc(-c4ccc(OCCCN5CCC5)nc4)ccc3ncc21 [Example 34, 8-[6-[3-(azetidin-1-yl)propoxy]pyridin-3-yl]-3-mehtyl-1-[(3R)-oxan-3-yl]imidazo[5,4-c]quinolin-2-one]	> 16900	505	402	0.84
CNCCCOc1ccc(-c2ccc3ncc4c(c3c2)n([C@H]2C[C@@H](OC)C2)c(=O)n4C)cn1 [Example 42, 1-(cis-3-methoxycyclobutyl)-3-methyl-8-[6-(3-methylaminopropoxy)pyridin-3-yl]imidazo[4,5-c]quinolin-2-one]	4370	214	321	0.249
CO[C@H]1C[C@@H](n2c(=O)n(C)c3cnc4ccc(-c5ccc(OCCCN6CCC6)nc5)cc4c32)C1 [Example 38, 8-[6-[3-(azetidin-1-yl)propoxy]pyridin-3-yl]-1-(cis-3-methoxycyclobutyl)-3-methylimidazo[4,5-c]quinolin-2-one]	> 24400	2240	729	0.292
CO[C@H]1C[C@@H](n2c(=O)n(C)c3cnc4ccc(-c5ccc(OCCCN(C)C)nc5)cc4c32)C1 [Example 2, 8-[6-(3-Dimethylaminopropoxy)pyridin-3-yl]-1-(cis-3-methoxycyclobutyl)-3-methylimidazo[4,5-c]quinolin-2-one]	> 29000	1170	1770	0.249
CO[C@H]1CC[C@H](n2c(=O)n(C)c3cnc4cc(F)c(-c5ccc(OCCCN(C)C)nc5)cc4c32)C1 [Example 63, 8-[6-[3-(Dimethylamino)propoxy]-3-pyridyl]-7-fluoro-1-[(1S,3S)-3-methoxycyclopentyl]-3-methyl-imidazo[4,5-c]quinolin-2-one]	> 30000	10800	3280	0.31
Cn1c(=O)n([C@H]2C[C@@H](O)C2)c2c3cc(-c4ccc(OCCCN5CCC5)nc4)ccc3ncc21 [Example 14, 8-[6-[3-(azetidin-1-yl)propoxy]pyridin-3-yl]-1-(cis-3-hydroxycyclobutyl)-3-methylimidazo[4,5-c]quinolin-2-one]	> 30000	1040	616	1.05
CN(C)CCCOc1ccc(-c2ccc3ncc4c(c3c2)n([C@H]2CCOC2)c(=O)n4C)cn1 [Example 45, 8-[6-[3-(dimethylamino)propoxy]-3-pyridyl]-3-methyl-1-[(3S)-tetrahydrofuran-3-yl]imidazo[4,5-c]quinolin-2-one methanesulfonic acid salt]	9600	1190	260	< 0.534
CO[C@@H]1CC[C@@H](n2c(=O)n(C)c3cnc4ccc(-c5ccc(OCCCN(C)C)nc5)cc4c32)C1 [Example 25, 8-[6-(3-Dimethylaminopropoxy)pyridin-3-yl]-1-[(1R,3R)-3-methoxycyclopentyl]-3-methylimidazo[4,5-c]quinolin-2-one]	> 20700	1190	1050	0.315
CN(C)CCCOc1ccc(-c2cc3c(cc2F)ncc2c3n([C@H]3CCCOC3)c(=O)n2C)c(F)n1 [Example 48, 8-[6-[3-(Dimethylamino)propoxy]-2-fluoro-3-pyridyl]-7-fluoro-3-methyl-1-[(3S)-tetrahydropyran-3-yl]imidazo[4,5-c]quinolin-2-one methanesulfonic acid salt]	> 30000	23000	> 9400	1.02
CNCCCOc1ccc(-c2ccc3ncc4c(c3c2)n(C2CCOCC2)c(=O)n4C)cn1 [Example 40, 3-Methyl-8-[6-(3-methylaminopropoxy)pyridin-3-yl]-1-(oxan-4-yl)imidazo[5,4-c]quinolin-2-one]	1330	191	184	0.567
CO[C@H]1C[C@@H](n2c(=O)n(C)c3cnc4cc(F)c(-c5ccc(OCCCN(C)C)nc5F)cc4c32)C1 [Example 19, 8-[6-(3-dimethylaminopropoxy)-2-fluoropyridin-3-yl]-7-fluoro-1-(cis-3-methoxycyclobutyl)-3-methylimidazo[4,5-c]quinolin-2-one]	> 30000	13700	> 28000	2.62
Cn1c(=O)n(C2COC2)c2c3cc(-c4ccc(OCCCN5CCCCC5)nc4)ccc3ncc21 [Example 56, 3-methyl-1-(oxetan-3-yl)-8-[6-[3-(1-piperdyl)propoxy]-3-pyridyl]imidazo[4,5-c]quinolin-2-one trifluoroacetic acid salt]	> 30000	12400	> 26300	3.02
Cn1c(=O)n(C2CCOCC2)c2c3cc(-c4ccc(OCCCN5CCC5)nc4)ccc3ncc21 [Example 39, 8-[6-[3-(azetidin-1-yl)propoxy]pyridin-3-yl]-3-methyl-1-(oxan-4-yl)imidazo[5,4-c]quinolin-2-one]	10700	1270	828	1.33
Cn1c(=O)n([C@H]2CCCOC2)c2c3cc(-c4ccc(OCCCN5CCCC5)nc4)c(F)cc3ncc21 [Example 23, 7-fluoro-3-methyl-8-[6-(3-pyrrolidin-1-ylpropoxy)-3-pyridyl]-1-[(3S)-tetrahydropyran-3-yl]imidazo[4,5-c]quinolin-2-one]	> 30000	18200	> 30000	0.563
CN(C)CCCOc1ccc(-c2cc3c(cc2F)ncc2c3n(C3(C)CCOCC3)c(=O)n2C)cn1 [Example 3, 8-[6-(3-Dimethylaminopropoxy)pyridin-3-yl]-7-fluoro-3-methyl-1-(4-methyloxan-4-yl)imidazo[5,4-c]quinolin-2-one]	> 30000	4930	22400	2.03
Cn1c(=O)n([C@H]2C[C@@H](O)C2)c2c3cc(-c4ccc(OCCCN5CCCC5)nc4)ccc3ncc21 [Example 15, 1-(cis-3-hydroxycyclobutyl)-3-methyl-8-[6-(3-pyrrolidin-1-ylpropoxy)pyridin-3-yl]imidazo[4,5-c]quinolin-2-one]	> 30000	2580	2390	0.447
